# From US7262151B2, “Methods and compositions for production of lipo-chito oligosaccharides by rhizobacteria” (McGill University, priority 2001, dated 2007)
# Key:
# B. japonicum USDA 110 = assay: LCO production by B. japonicum USDA 110 (butanol extraction, HPLC); format: cell-based, Bradyrhizobium japonicum
# Protocol: Cultures of B. japonicum (strain USDA 110) were grown at 28° C. in 600 ml of sterile yeast mannitol medium (YEM) at pH 6.8. The culture was shaken at 150 rpm until an OD620 of 0.4 to 0.6 was achieved (4 to 6 days). When the culture reached this stage, it was divided equally into four flasks (150 mL) and specific concentrations of JA and genistein were added to the cultures.
# One hundred and fifty mL of each culture were extracted with 40 mL of the HPLC-grade butanol (Fisher Science Ltd., 112 Colonnade Road, Nepean, ON, Canada) by shaking together for 5 minutes. The two phases were then allowed to separate by leaving the mixture to stand overnight. The upper layer (butanol) was collected with a glass pipette and 25 mL were placed in a 250 ml evaporation flask. LCO extract solutions were stored at 4° C. until evaporation. This step was conducted at 80° C. with a Yamato RE 500 Rotary Evaporator (Yamato Scientific American Inc., Orangeburge, N.Y., USA). The butanol phase was evaporated down to 2 to 3 mL. The resulting light brown material was dissolved in 4 ml of 18% acetonitrile and stored in the dark at 4° C. in a glass tube sealed with parafilm.
# For HPLC analysis we used a Vydac C18 reversed—phase column (VYDAC, Hesperia, Calif., USA) with a flow rate of 1.0 mL/min and a Vydac guard column (VYDAC, Hesperia, Calif., USA). We used at least 10 min. of isocratic run with 18% acetonitrile (AcN/H2O; w/w) to establish a baseline. The baseline value was always about 0.010. When a sample was loaded we conducted an isocratic elution with 18% AcN for 45 min. This step removed all non-polar light fractions. We then applied a gradient elution (18 to 82% AcN) for 70 min. LCOs begin to appear at 84 to 86 min of HPLC run time. We used B. japonicum Nod factor (BjV (C18:1, MeFuc)) obtained from G. Stacey (University of Tennessee, Knoxville, Tenn.) as a standard. The identity of the LCO was confirmed by the Complex Carbohydrate Research Center at the University of Georgia with FAB-MS and MALDI-TOF spectrometry analysis.
# There were two experiments conducted. In the first the treatments consisted of factorial combinations of two concentrations (0 and 20 μM) of two signal materials (JA and genistein (zhang and Smith, 1995)). The experiment was organized following a randomized complete block design with three blocks. In experiment 1, two temperatures were used (17 and 25° C.). […]
# Each of the above experiments was conducted two times and the experimental results were pooled and analyzed statistically by analysis of variance using the Statistical Analysis System computer package (SAS Institute Inc. 1980). […] Since the effects of temperature on growth were very large, the data from two temperatures used in the first experiment were analyzed separately.
# [1] = system: Bradyrhizobium japonicum USDA 3; assay: LCO production by wild type USDA3 (XAD resin extraction, HPLC); format: cell-based; conditions: for production of LCOs, in words: at optimum concentrations
# Protocol: Bradyrhizobium japonicum (strain USDA 3) was grown at 28° C. in yeast extract mannitol medium (YEM) (mannitol 10 g, K2HPO4 0.5 g, MgSO4.7H2O 0.2 g, NaCl 0.1 g, yeast extract 0.4 g, and distilled water 1000 ml), pH 6.8, shaken at 150 rpm until the OD620 reached 0.4-0.6 (4-6 d) in the dark. Thereafter, 2.0 l of bacterial subculture was started by inoculating with material from the first culture (5 ml of the first culture per 250 ml of YEM media), until the OD620 reached to 0.2-0.4. At this stage, methyl jasmonate, jasmonic acid and genistein were added to culture so that the final concentraton for methyl jasmonate and jasmonic acid was 5, 10, 25, 50 and 100 μM and 5 μM for genistein. The culture was incubated for 48-96 h and the LCO extracted according to the following procedure.
# The LCO from the induced bacterial culture was isolated with XAD resins. Before using XAD resins for extraction, they were first conditioned. Each 40 grams of XAD resins were first washed two times with 20 mL acetone after conditioning for 15 minutes. This was followed by two washes of 20 mL methanol when the resins were conditioned for 15 minutes. Finally, the XAD resins were conditioned (5 min) and washed with 20 mL dd. water two times. The conditioned resins were placed in the refrigerator at 4° C. until use.
# For each one liter of bacterial culture, 40 grams of resin was added to the flask and these were shaken together overnight at 150 rpm. The culture along with the resin was poured through a funnel into a flask fitted with a course brass mesh (fine enough to allow the culture go quickly through and filter out the resin without any loss). At this stage, the resins are washed with water. In order to extract LCO from the resin, the XAD resin was passed through a vacuum filtration system. The fritted glass base of the system was fitted with Whatman #1 paper disk with the objective to keep the solvent with the bead until vacuum is applied. The resin beads were washed two times with 40 mL methanol after conditioning for 5 minutes. […]
Compound,peak-time for LCO production (B. japonicum USDA 110; after genistein was added to the cell culture) [h],"effect on LCO production, in words (B. japonicum USDA 110; 25° C., genistein present)","effect on LCO production, in words (B. japonicum USDA 110; JA alone, without genistein, either temperature)","effect on LCO production, in words (B. japonicum USDA 110; low temperature (17° C.), genistein present)","production of LCOs, in words [1]",LCO production compared with optimum genistein concentration (5 μM) ([1]; 100 μM)
"O=c1c(-c2ccc(O)cc2)coc2cc(O)cc(O)c12 [GEN, 5,7,4′-trihydroxyisoflavone]",8 to 10,–,–,–,–,–
"CC/C=C\C[C@H]1C(=O)CC[C@@H]1CC(=O)O [JA, [1R-[1α,2β(Z)]]-3-oxo-2-(pentenyl)cyclopentaneacetic acid]",–,not at 25 °C,can not promote LCO production,can improve LCO production,induced the production of LCOs,–
"CC/C=C\CC1C(=O)CCC1CC(=O)OC (stereo not shown) [MeJA, methyl jasmonate]",–,–,–,–,induced the production of LCOs,substantially more LCO
